Source: patent publication US20170008928A1, “NOVEL PEPTIDES AND PEPTIDE DERIVATIVES AND USES THEREOF” (Novo Nordisk A/S, priority 2015, published 2017)
Like-named read-outs stand apart in the source and are kept apart here. Starred links: 1 amine or outer side, 2 acyl side, 3 side chain; linkers in the order of their positions; H or OH if unused. Non-standard residues stand in square brackets, D forms with d. Residues, ends and D or L forms follow the SMILES beside them. *: point of attachment. Phe(4-CH2SO3H) = N[C@@H](Cc1ccc(CS(=O)(=O)O)cc1)C(=O)O; C18 diacid = O=C(O)CCCCCCCCCCCCCCCCC(=O)*; γGlu = O=C(O)[C@H](CCC(=O)[*:2])N[*:1]; NMeF = CN[C@@H](Cc1ccccc1)C(=O)O; dNMeD = CN[C@H](CC(=O)O)C(=O)O; Nle = CCCC[C@H](N)C(=O)O; AEEA = NCCOCCOCC(=O)O

Test: Plasma exposure after the last dose in DIO mini-pigs
Assay type: in vivo, Göttingen mini-pigs
Details: for AUC(0-t): Göttingen, minipig, plasma, sc, read-out: AUCexposure (0-24 h) after last dose
Description: The CCK derivative was dissolved in the following buffer: 8 mM phosphate, 184 mM propylene glycol, 58 mM phenol, pH 7.4 concentrations ranging from 2000-10000 nmol/mL corresponding to dose volumes ranging from 0.00075-0.001 mL/kg. Liraglutide was dissolved in 8 mM phosphate, 184 mM propylenglycol, 58 mM phenol, pH 8.15 (1600 nmol/mL), dose volume was 0.001 mL/kg and this formulation also served as a vehicle for all 3 treatment groups. Animals were dosed subcutaneously once daily with vehicle, CCK derivative, liraglutide, or liraglutide in combination with the CCK derivative (given as two separate injections in each side of the neck). After the last dose blood samples were obtained in EDTA coated tubes at selected time points for up to 480 hours after dosing. Blood was sampled through central-venous catheters implanted under general anaesthesia after 11 weeks of treatment.
The resulting plasma was pipetted into Micronic tubes on dry ice, and kept at −20° C. until analysed for plasma exposure of liraglutide and the CCK derivative. Plasma content of the CCK derivative was measured using LC-MS method II, as described in Example 93. Plasma content of liraglutide was measured using LOCI (Luminescence Oxygen Channeling Immunoasssay). LOCI is generally described for the determination of insulin by Poulsen and Jensen in Journal of Biomolecular Screening 2007, vol. 12, p. 240-247. The donor beads were coated with streptavidin, while acceptor beads were conjugated with a monoclonal antibody recognising a C-terminal epitope of the peptide. Another monoclonal antibody, specific for the N-terminus, was biotinylated. The three reactants were combined with the analyte and formed a two-sited immuno-complex. Illumination of the complex released singlet oxygen atoms from the donor beads, which were channelled into the acceptor beads and triggered chemiluminescence which was measured in an Envision plate reader. The amount of light was proportional to the concentration of the compound.

## CCCC[C@H](NC(=O)[C@H](Cc1ccc(CS(=O)(=O)O)cc1)NC(=O)[C@H](CC(=O)O)NC(=O)COCCOCCNC(=O)COCCOCCNC(=O)CC[C@H](NC(=O)CCCCCCCCCCCCCCCCC(=O)O)C(=O)O)C(=O)NCC(=O)N[C@@H](Cc1c[nH]c2ccccc12)C(=O)N[C@@H](CCCC)C(=O)N(C)[C@H](CC(=O)O)C(=O)N(C)[C@@H](Cc1ccccc1)C(N)=O [Example 3, 2-[2-[2-[[2-[2-[2-[[(4S)-4-Carboxy-4-(17-carboxyheptadecanoylamino)butanoyl]amino]ethoxy]ethoxy]acetyl]amino]ethoxy]ethoxy]acetyl-Asp-Phe(4-sulfomethyl)-Nle-Gly-Trp-Nle-DMeAsp-MePhe-amide] ({C18 diacid-γGlu-AEEA-AEEA}-D[Phe(4-CH2SO3H)][Nle]GW[Nle][dNMeD][NMeF]-NH2)
CCK derivative high dose group (10 nmol/kg)
  AUC(0-t): 27.1 µM·h
CCK derivative low dose group
  AUC(0-t): 4.2 µM·h
Combination group, CCK derivative […] on top of liraglutide
  AUCexposure (0-24 h) after last dose, CCK derivative: derivative: 3332000 pM*h
